Laboratory results published in patent publication US8501816B2, “Antitussive compositions comprising memantine” (Cerecor, Inc., priority 2010, dated 2013).
Marks after values point to notes of the source that are not given here.

Legend:
[1] = tested on: citric acid induced cough; experiment: Citric acid induced cough in conscious guinea pigs; details: for Mean ± sem cumulative coughs / ≧15 Cumulative coughs/total number of guinea pigs: potentially synergistic agents; for Effect of single agent on citric acid (0.01-0.3M) induced cough: oral, 60 minutes prior, memantine 3, guaifenesin 100, diphenhydramine 10, benzonatate 30, ambroxol 100 mg/kg; for Effect on cumulative number of coughs evoked by lower concentrations of citric acid (0.01-0.1 M): 30 mg/kg; for Cumulative numbers of cough, median, citric acid 0.01M / Cumulative numbers of cough, median, citric acid 0.1M / Cumulative numbers of cough, median, citric acid 0.3M / Effect on cumulative number of coughs evoked by citric acid (0.01-0.3M) compared to controls: 30 mg/kg intraperitoneally
Description: Male Hartley guinea pigs (200-700 g) were studied and all experiments were first approved by the institutional Animal Care and Use Committee.
Animals were placed in a transparent chamber (Buxco Research Systems, Wilmington, N.C.) with a continuous flow of air and exposed to increasing concentrations of citric acid (0.01 M-0.3 M) is delivered by an ultrasonic nebulizer generating aerosol particles of 3-6 μm diameter. Coughs were counted during a 5 minute nebulization period and over the subsequent 5 minutes with the assistance of sound and pressure monitoring from the chamber. Respiratory rate and tidal volume were monitored throughout via a calibrated pressure transducer (Emka Technologies, Falls Church, Va.).
Each of these drugs was administered orally in half-log increments (e.g. 3 mg/kg, 10 mg/kg, 30 mg/kg) in an unpaired experimental design (each animal received only 1 dose of drug). The drugs were administered 60 minutes prior to citric acid challenge, which consisted of 5 minute challenges with aerosols of increasing concentrations of citric acid (0.01-0.3M), with 5 minute intervals in between escalating doses of the tussive stimulus.

[2] = tested on: citric acid evoked coughing; experiment: Microinjection of NMDA receptor antagonists into the central termination sites of the cough receptors; assay type: in vivo, guinea pig; details: anesthetized guinea pigs
[3] = in vivo, po; cited from earlier work
[4] = tested on: freezing behavior during cued fear conditioning; experiment: Cued fear conditioning in mice; assay type: in vivo; details: diphenhydramine 20 mg/kg IP, p=0.061
Description: The effects of memantine on enhancing cognition were investigated with fear conditioning tests on mice. Specifically, the fear conditioning test exposed mice to a conditioned stimulus (a tone) and an unconditioned stimulus (a mild electric shock). The mice learned to associate the tone with the shock as reflected by freezing. After being adequately conditioned, the mice were administered memantine or a control (vehicle alone). […] Fear Conditioning: Fear conditioning mouse chambers (7''W×7''D×12''H; Coulbourne Instruments, […] Valley, Pa.) were housed in sound attenuating chambers. A camera was mounted on the ceiling of the chamber to capture mouse behavior (FreezeFrame software, Coulbourne Instruments, […] Valley, Pa.); data were analyzed by Freezeview software (Coulbourne Instruments, […] Valley, Pa.). Fear conditioning chambers were calibrated prior to each experiment to ensure that each chamber delivers the same shock intensity. […] Pavlovian fear conditioning refers to the learning of associations between a negative reinforcer (e.g., a mild electric foot shock/s), a novel context (e.g. a context) and/or a specific, neutral, cue (e.g., tone or white noise). To assess contextual and cued (tone) learning and memory, a standardized fear conditioning task developed for the evaluation of memory in rodents was used. Protocol: […] Cue-induced Conditioning Testing: Mice were tested for cued memory 48 hours after training. The cued conditioning test was conducted in an altered context (i.e., a different test chamber). […] Statistical Analysis: Data are represented as the mean and standard error to the mean. Data were analyzed by analysis of variance (ANOVA) followed by Fisher PLSD, or unpaired t-tests, when appropriate to test a planned comparison. An effect was considered significant if p<0.05. Statistical outliers that fell above or below two standard deviations from the mean were removed from the final analysis.

[5] = tested on: Caco-2 cells; experiment: Memantine in vitro intestinal permeability (Caco-2 cells); assay type: in vitro ADME; details: FIG. 12
[6] = Respiratory parameters during cough challenge; assay type: in vivo, guinea pig; details: 50 mg/kg; controls 117.7(±26.3)
Description: Using a similar chamber and nebulizer system, animals were treated first with aerosolized peptidase inhibitors (captopril 0.1 μM and thiorphan 0.1 μM, 5 minutes nebulization) to reduce bradykinin degradation and enhance tussive responses evoked by bradykinin (unpublished observations). Animals were then exposed to increasing concentrations of aerosolized bradykinin (0.1-3 mg/mL), again for 5 minute periods. Coughs are counted during this and the subsequent 5 minutes. Pressure changes within the chamber are used to monitor respiratory rate (Biopac Systems Inc, Goleta, Calif.).

[7] = tested on: cough; details: cited from earlier work
[8] = Sedation and side effects observed in the cough studies; details: for Sedation (FIG. 20): 30 mg/kg intraperitoneally; for Animals with mild to moderate sedation: n=8; for Sedation: 50 mg/kg, precluded assessment of cough

Nc1c(Br)cc(Br)cc1CN[C@H]1CC[C@H](O)CC1 [Ambroxol]
Mean ± sem cumulative coughs ([1]; 100 mg/kg po): 13 ± 4 | ≧15 Cumulative coughs/total number of guinea pigs ([1]; 100 mg/kg po): 2/6 | Effect of single agent on citric acid (0.01-0.3M) induced cough [1]: failed to inhibit cough

NC(CCCP(=O)(O)O)C(=O)O (stereo not shown) [AP5]
Effect of microinjection on citric acid evoked coughing [2]: prevents citric acid evoked coughing

Cc1ccc(-c2nc3ccc(C)cn3c2CC(=O)N(C)C)cc1 [zolpidem]
orally bioavailable [3]: less than 70%

CN(C)CCOC(c1ccccc1)c1ccccc1 [Diphenhydramine]
cue-induced fear conditioning, CS phase, vs vehicle-vehicle [4]: strong trend toward decreased cue-induced fear conditioning

CC1CCC(C(C)C)C(O)C1 (stereo not shown) [Menthol]
Mean ± sem cumulative coughs ([1]; 30 mg/kg po): 21 ± 3 | ≧15 Cumulative coughs/total number of guinea pigs ([1]; 30 mg/kg po): 3/3 | Mean ± sem cumulative coughs ([1]; 100 mg/kg po): 11±2 | ≧15 Cumulative coughs/total number of guinea pigs ([1]; 100 mg/kg po): 1/7

COc1ccccc1OCC(O)CO (stereo not shown) [Guaifenesin, 3-(2-methoxyphenoxy)-1,2-propanediol]
Mean ± sem cumulative coughs ([1]; 50 mg/kg po): 30 ± 1 | ≧15 Cumulative coughs/total number of guinea pigs ([1]; 50 mg/kg po): 3/3 | Mean ± sem cumulative coughs ([1]; 100 mg/kg po): 20 ± 5 | ≧15 Cumulative coughs/total number of guinea pigs ([1]; 100 mg/kg po): 3/4 | Effect of single agent on citric acid (0.01-0.3M) induced cough [1]: failed to inhibit cough

CCCCCCCC/C=C\CCCCCCCC(=O)O [oleic acid]
Effect as permeation enhancer on memantine Caco-2 permeability [5]: ineffective

CC(O)CO (stereo not shown) [propylene glycol]
Effect as permeation enhancer on memantine Caco-2 permeability [5]: ineffective

CNC1(c2ccccc2Cl)CCCCC1=O (stereo not shown) [Ketamine]
mean breathing frequency [6]: 92.3(±18.8) breaths/min | Efficacy in chronic cough patients ([7]; Young et al.): ineffective | Sedation (FIG. 20) [8]: moderate to severe sedation in the majority of animals studied | Time at which sedation reversed ([8]; 30 mg/kg, during the cough challenge): 40-50 minutes post-injection | Animals with mild to moderate sedation ([8]; 30 mg/kg): 87.5% | Sedation [8]: severe sedation | Effect on cumulative number of coughs evoked by lower concentrations of citric acid (0.01-0.1 M) [1]: not | Cumulative numbers of cough, median, citric acid 0.01M [1]: 0.0 | Cumulative numbers of cough, median, citric acid 0.1M [1]: 1.5 | Cumulative numbers of cough, median, citric acid 0.3M [1]: 11.0 | Effect on cumulative number of coughs evoked by citric acid (0.01-0.3M) compared to controls [1]: failed to produce a statistically significant reduction in cumulative coughs

COc1ccc2c(c1)[C@]13CCCC[C@@H]1[C@H](C2)N(C)CC3 [Dextromethorphan]
mean breathing frequency [6]: 90.0(±13.7) breaths/min | Efficacy in cough associated with upper respiratory tract infections ([7]; Bolser 2006): ineffective | Effect of microinjection on citric acid evoked coughing [2]: prevents citric acid evoked coughing | Sedation (FIG. 20) [8]: moderate to severe sedation in the majority of animals studied | Animals with mild to moderate sedation ([8]; 30 mg/kg): 62.5% | Duration of sedation ([8]; 30 mg/kg, persisted throughout the citric acid challenge): > 2 h | Sedation [8]: severe sedation | Effect on cumulative number of coughs evoked by lower concentrations of citric acid (0.01-0.1 M) [1]: significantly reduced the cumulative number of coughs | Cumulative numbers of cough, median, citric acid 0.01M [1]: 0.0 | Cumulative numbers of cough, median, citric acid 0.1M [1]: 0.5* | Cumulative numbers of cough, median, citric acid 0.3M [1]: 7.5 | Effect on cumulative number of coughs evoked by citric acid (0.01-0.3M) compared to controls [1]: failed to produce a statistically significant reduction in cumulative coughs

N[C@@H](Cc1cc(CP(=O)(O)O)cc(-c2ccccc2Cl)c1)C(=O)O [SDZ220581]
Effect of microinjection on citric acid evoked coughing [2]: prevents citric acid evoked coughing

CCCCNc1ccc(C(=O)OCCOCCOCCOCCOCCOCCOCCOCCOCCOC)cc1 [Benzonatate]
Mean ± sem cumulative coughs ([1]; 10 mg/kg po): 24 ± 4 | ≧15 Cumulative coughs/total number of guinea pigs ([1]; 10 mg/kg po): 3/3 | Mean ± sem cumulative coughs ([1]; 30 mg/kg po): 13 ± 4 | ≧15 Cumulative coughs/total number of guinea pigs ([1]; 30 mg/kg po): 2/5 | Effect of single agent on citric acid (0.01-0.3M) induced cough [1]: failed to inhibit cough
